Measured values as given in patent US11655268B2, “Nucleoside or nucleotide derivatives, and uses thereof” (ST Pharm Co., Ltd., priority 2018, dated 2023).
Counter-ions that a name gives are not always drawn.

What was measured:
DENV = assay: Reduction in viral infection, dengue virus in Vero cells, immunofluorescence (4G2 antibody); format: cell-based, Dengue virus New Guinea C (NGC); details: 72 h, read-out: EC50 DENV
[1] = Cytotoxicity (CC50) in Vero cells; details: African green monkey, CC50 (DENV), Vero cells, DENV test
MERS-CoV = assay: microbe, parasite or virus in culture; format: cell-based, MERS virus (MERS-CoV/KOR/KNIH/002_05_2015); details: Middle East respiratory syndrome-related coronavirus, Huh-7, 72 h, read-out: EC50 MERS-CoV
in vitro [2] = details: human
Influenza virus B/Lee/40 = assay: Cytopathic effect reduction, influenza B Lee in MDCK cells, MTT; format: cell-based; details: for Selectivity index FluB Lee: CC50/EC50; for EC50: MDCK, 72 h, read-out: Anti-Flu activity EC50 FluB Lee
in vitro [3] = details: dog
hCoV (229E) = assay: microbe, parasite or virus in culture; format: cell-based, Human coronavirus hCoV 229E; details: MRC5, 72 h; MRC-5 cells, day 3 after infection; read-out: EC50 hCoV (229E)
in vitro [4] = details: human; remark: listed apart in the source

| Structure (SMILES) | EC50 (DENV) [µM] | CC50 at 3 days [1] [µM] | EC50 (MERS-CoV) [µM] | CC50 at 3 days (in vitro [2]) [µM] | Selectivity index FluB Lee (Influenza virus B/Lee/40) | EC50 (Influenza virus B/Lee/40) [µM] | CC50 at 3 days (in vitro [3]) [µM] | CC50 (in vitro [3]) [µM] | EC50 (hCoV (229E)) [µM] | CC50 (in vitro [4]) [µM] |
| --- | --- | --- | --- | --- | --- | --- | --- | --- | --- | --- |
| O=C(Nc1ccn(C2O[C@H](CO)[C@@H](O)[C@H]2F)c(=O)n1)c1cccnc1 (stereo in doubt) [Example 26, N-(1-((2S,3R,4R,5R)-3-fluoro-4-hydroxy-5-(hydroxymethyl)tetrahydrofuran-2-yl)-2-oxo-1,2-dihydropyrimidin-4-yl)nicotinamide] | 57.7 | > 100 | – | – | – | – | – | – | – | – |
| Cc1ccc(C(=O)Nc2ccn(C3O[C@H](CO)[C@@H](O)[C@H]3F)c(=O)n2)cn1 (stereo in doubt) [Example 32, N-(1-((2S,3R,4R,5R)-3-fluoro-4-hydroxy-5-(hydroxymethyl)tetrahydrofuran-2-yl)-2-oxo-1,2-dihydropyrimidin-4-yl)-6-methylnicotinamide] | – | – | > 100 | > 100 | – | – | – | – | – | – |
| Cc1cncc(C(=O)Nc2ccn(C3O[C@H](CO)[C@@H](O)[C@H]3F)c(=O)n2)n1 (stereo in doubt) [Example 34, N-(1-((2S,3R,4R,5R)-3-fluoro-4-hydroxy-5-(hydroxymethyl)tetrahydrofuran-2-yl)-2-oxo-1,2-dihydropyrimidin-4-yl)-6-methylpyrazine-2-carboxamide] | – | – | > 100 | > 100 | >9.0 | 11.1 | > 100 | – | – | – |
| O=C(Nc1ccn(C2O[C@H](CO)[C@@H](O)[C@H]2F)c(=O)n1)c1ccc(F)cn1 (stereo in doubt) [Example 35, 5-Fluoro-N-(1-((2S,3R,4R,5R)-3-fluoro-4-hydroxy-5-(hydroxymethyl)tetrahydrofuran-2-yl)-2-oxo-1,2-dihydropyrimidin-4-yl)picolinamide] | – | – | > 100 | > 100 | >2.7 | 37.4 | > 100 | – | – | – |
| O=C(Nc1ccn(C2O[C@H](CO)[C@@H](O)[C@H]2F)c(=O)n1)c1ccc(C(F)(F)F)nc1 (stereo in doubt) [Example 41, N-(1-((2S,3R,4R,5R)-3-fluoro-4-hydroxy-5-(hydroxymethyl)tetrahydrofuran-2-yl)-2-oxo-1,2-dihydropyrimidin-4-yl)-6-(trifluoromethyl)nicotinamide] | – | – | – | – | >5.3 | 18.9 | > 100 | – | – | – |
| O=C(Nc1ccn(C2O[C@H](CO)[C@@H](O)[C@H]2F)c(=O)n1)c1ccc(F)nc1 (stereo in doubt) [Example 42, 6-Fluoro-N-(1-((2S,3R,4R,5R)-3-fluoro-4-hydroxy-5-(hydroxymethyl)tetrahydrofuran-2-yl)-2-oxo-1,2-dihydropyrimidin-4-yl)nicotinamide] | – | – | – | – | >5.5 | 18.3 | > 100 | – | – | – |
| NC12CC3CC(CC(C3)C1)C2 [AMT, amantadine hydrochloride, reference compound] | – | – | – | – | – | > 100 | – | > 100 | – | – |
| Cc1cccnc1C(=O)Nc1ccn([C@@H]2O[C@H](CO)[C@@H](O)C2(F)F)c(=O)n1 [Example 12, N-(1-((2R,4R,5R)-3,3-difluoro-4-hydroxy-5-(hydroxymethyl)tetrahydrofuran-2-yl)-2-oxo-1,2-dihydropyrimidin-4-yl)-3-methylpicolinamide] | 6.16 | > 100 | – | – | >2.0 | 49.1 | > 100 | – | 12.2 | > 100 |
| Cc1cccc(C(=O)Nc2ccn([C@@H]3O[C@H](CO)[C@@H](O)C3(F)F)c(=O)n2)n1 [Example 13, N-(1-((2R,4R,5R)-3,3-difluoro-4-hydroxy-5-(hydroxymethyl)tetrahydrofuran-2-yl)-2-oxo-1,2-dihydropyrimidin-4-yl)-6-methylpicolinamide] | 1.98 | > 100 | – | – | >12.8 | 7.8 | > 100 | – | 5.8 | > 100 |
| O=C(Nc1ccn([C@@H]2O[C@H](CO)[C@@H](O)C2(F)F)c(=O)n1)c1ccc(C(F)(F)F)nc1 [Example 14, N-(1-((2R,4R,5R)-3,3-difluoro-4-hydroxy-5-(hydroxymethyl)tetrahydrofuran-2-yl)-2-oxo-1,2-dihydropyrimidin-4-yl)-6-(trifluoromethyl)nicotinamide] | – | – | – | – | >32.3 | 3.1 | > 100 | – | – | – |
| Cn1cc(C(=O)Nc2ccn([C@@H]3O[C@H](CO)[C@@H](O)C3(F)F)c(=O)n2)cn1 [Example 15, N-(1-((2R,4R,5R)-3,3-difluoro-4-hydroxy-5-(hydroxymethyl)tetrahydrofuran-2-yl)-2-oxo-1,2-dihydropyrimidin-4-yl)-1-methyl-1H-pyrazole-4-carboxamide] | – | – | – | – | 12.5 | 8 | > 100 | – | – | – |
| O=C(Nc1ccn([C@@H]2O[C@H](CO)[C@@H](O)C2(F)F)c(=O)n1)c1cccc(-c2ccccc2)n1 [Example 17, N-(1-((2R,4R,5R)-3,3-difluoro-4-hydroxy-5-(hydroxymethyl)tetrahydrofuran-2-yl)-2-oxo-1,2-dihydropyrimidin-4-yl)-6-phenylpicolinamide] | < 1.2 | 58.9 | – | – | >41.7 | 2.4 | > 100 | – | – | – |
| O=C(Nc1ccn([C@@H]2O[C@H](CO)[C@@H](O)C2(F)F)c(=O)n1)c1ccc([N+](=O)[O-])cn1 [Example 19, N-(1-((2R,4R,5R)-3,3-difluoro-4-hydroxy-5-(hydroxymethyl)tetrahydrofuran-2-yl)-2-oxo-1,2-dihydropyrimidin-4-yl)-5-nitropicolinamide] | < 1.2 | < 1.2 | – | – | >83.3 | < 1.2 | > 100 | – | – | – |
| Cl.Nc1ccc(C(=O)Nc2ccn([C@@H]3O[C@H](CO)[C@@H](O)C3(F)F)c(=O)n2)nc1 [Example 20, 5-amino-N-(1-((2R,4R,5R)-3,3-difluoro-4-hydroxy-5-(hydroxymethyl)tetrahydrofuran-2-yl)-2-oxo-1,2-dihydropyrimidin-4-yl)picolinamide-hydrochloride] | 1.6 | 75.9 | – | – | >5.1 | 19.5 | – | > 100 | – | – |
| COc1ccc(C(=O)Nc2ccn([C@@H]3O[C@H](CO)[C@@H](O)C3(F)F)c(=O)n2)nc1 [Example 21, N-(1-((2R,4R,5R)-3,3-difluoro-4-hydroxy-5-(hydroxymethyl)tetrahydrofuran-2-yl)-2-oxo-1,2-dihydropyrimidin-4-yl)-5-methoxypicolinamide] | 1.3 | > 100 | – | – | >4.5 | 22.3 | > 100 | – | – | – |
| COc1ccc(C(=O)Nc2ccn([C@@H]3O[C@H](CO)[C@@H](O)C3(F)F)c(=O)n2)cn1 [Example 22, N-(1-((2R,4R,5R)-3,3-difluoro-4-hydroxy-5-(hydroxymethyl)tetrahydrofuran-2-yl)-2-oxo-1,2-dihydropyrimidin-4-yl)-6-methoxynicotinamide] | < 1.2 | < 1.2 | – | – | >4.1 | 24.4 | > 100 | – | – | – |
| O=C(Nc1ccn([C@@H]2O[C@H](CO)[C@@H](O)C2(F)F)c(=O)n1)c1ccc(Cl)nc1 [Example 23, 6-Chloro-N-(1-((2R,4R,5R)-3,3-difluoro-4-hydroxy-5-(hydroxymethyl)tetrahydrofuran-2-yl)-2-oxo-1,2-dihydropyrimidin-4-yl)nicotinamide] | < 1.2 | < 1.2 | – | – | >16.1 | 6.2 | > 100 | – | – | – |
| Cc1nccc(C(=O)Nc2ccn([C@@H]3O[C@H](CO)[C@@H](O)C3(F)F)c(=O)n2)n1 [Example 24, N-(1-((2R,4R,5R)-3,3-difluoro-4-hydroxy-5-(hydroxymethyl)tetrahydrofuran-2-yl)-2-oxo-1,2-dihydropyrimidin-4-yl)-2-methylpyrimidin-4-carboxamide] | < 1.2 | 55.4 | – | – | >83 | < 1.2 | > 100 | – | – | – |
| O=C(Nc1ccn([C@@H]2O[C@H](CO)[C@@H](O)C2(F)F)c(=O)n1)c1ccc(-c2ccccc2)cn1 [Example 25, N-(1-((2R,4R,5R)-3,3-difluoro-4-hydroxy-5-(hydroxymethyl)tetrahydrofuran-2-yl)-2-oxo-1,2-dihydropyrimidin-4-yl)-5-phenylpicolinamide] | < 1.2 | 29.5 | – | – | >16.4 | 6.1 | > 100 | – | – | – |
| CCC(CC)O[C@@H]1C=C(C(=O)O)C[C@H](N)[C@H]1NC(C)=O [OSV-C, oseltamivir carboxylate, reference compound] | – | – | – | – | – | 1.46 | – | – | – | – |
| NC(=O)c1ncn([C@@H]2O[C@H](CO)[C@@H](O)[C@H]2O)n1 [RBV, ribavirin, reference compound] | – | – | – | – | – | 40.6 | – | – | – | – |
